In brackets after ≈: the same amount, converted by molar mass.
Tests used:
Design in all cases: agar dilution MIC, growth inhibition of clinical Burkholderia isolates
B. cenocepacia AU10321 = test system: T1, B. cenocepacia AU10321; experiment: microbe, parasite or virus in culture; details: Burkholderia cenocepacia, AU10321
T1 construct: AU10321
Source text: (§1) We evaluated the activity of cefepime-taniborbactam against a panel of 140 Bcc clinical isolates (i.e., species ambifaria, arboris, cenocepacia, cepacia, contaminans, diffusa, dolosa, multivorans, pseudomultivorans, pyrrocinia, seminalis, stabilis, ubonensis, and vietnamiensis) and 10 B. gladioli from the Burkholderia cepacia Research Laboratory and Repository (University of Michigan) ([22], [25], [31]) (Supplementary Material, Tables S1 and S2). K. pneumoniae ATCC 700603 carrying bla SHV-18 and K. pneumoniae ATCC BAA-1705 harboring bla KPC strains were used as controls for β-lactam and β-lactamase inhibitor integrity; all controls tested within the anticipated quality control ranges (Table S3). Minimum inhibitory concentration (MIC) results were interpreted using Clinical Laboratory Standards Institute (CLSI) breakpoints, where available ([32]). […] An alternative cefepime-taniborbactam provisional susceptible breakpoint of ≤16 µg/mL is supported by in vivo efficacy data from neutropenic murine infection models (thigh, complicated urinary tract, and lung) ([15] [–] [17]) and data from safety and pharmacokinetics studies in human volunteers ([33], [34]). The cefepime-taniborbactam antimicrobial activity was compared to cefepime, meropenem, meropenem-vaborbactam, and levofloxacin, to data published for first-line agents (e.g., ceftazidime and trimethoprim-sulfamethoxazole) and to those recommended by the CLSI for clinical testing (e.g., minocycline) against the Bcc and B. gladioli panel ([22], [32]). Of note, the MICs of all these agents were determined by the agar dilution method, which alongside broth microdilution, are recommended by the CLSI to assess the antimicrobial susceptibility of Bcc isolates ([32]).

B. cenocepacia AU12659 = test system: T2, B. cenocepacia AU12659; experiment: microbe, parasite or virus in culture; details: Burkholderia cenocepacia, AU12659
T2 construct: AU12659
Source text: as §1

B. cenocepacia AU22509 = test system: T3, B. cenocepacia AU22509; experiment: microbe, parasite or virus in culture; details: Burkholderia cenocepacia, AU22509
T3 construct: AU22509
Source text: as §1

B. cenocepacia AU9215 = test system: T4, B. cenocepacia AU9215; experiment: microbe, parasite or virus in culture; details: Burkholderia cenocepacia, AU9215
T4 construct: AU9215
Source text: as §1

B. cenocepacia AU9292 = test system: T5, B. cenocepacia AU9292; experiment: microbe, parasite or virus in culture; details: Burkholderia cenocepacia, AU9292
T5 construct: AU9292
Source text: as §1

B. cepacia AU0108 = test system: T6, B. cepacia AU0108; experiment: microbe, parasite or virus in culture; details: Burkholderia cepacia, AU0108
T6 construct: AU0108
Source text: as §1

B. cepacia AU11420 = test system: T7, B. cepacia AU11420; experiment: microbe, parasite or virus in culture; details: Burkholderia cepacia, AU11420
T7 construct: AU11420
Source text: as §1

B. cepacia AU29493 = test system: T8, B. cepacia AU29493; experiment: microbe, parasite or virus in culture; details: Burkholderia cepacia, AU29493
T8 construct: AU29493
Source text: as §1

B. dolosa AU12872 = test system: T9, B. dolosa AU12872; experiment: microbe, parasite or virus in culture; details: Burkholderia dolosa, AU12872
T9 construct: AU12872
Source text: as §1

B. gladioli AU28659 = test system: T10, B. gladioli AU28659; experiment: organism not typed
T10 construct: AU28659
Source text: as §1

B. gladioli AU30473 = test system: T11, B. gladioli AU30473; experiment: organism not typed
T11 construct: AU30473
Source text: as §1

B. multivorans AU10398 = test system: T12, B. multivorans AU10398; experiment: microbe, parasite or virus in culture; details: Burkholderia multivorans, AU10398
T12 construct: AU10398
Source text: as §1

B. multivorans AU11204 = test system: T13, B. multivorans AU11204; experiment: microbe, parasite or virus in culture; details: Burkholderia multivorans, AU11204
T13 construct: AU11204
Source text: as §1

B. multivorans AU12481 = test system: T14, B. multivorans AU12481; experiment: microbe, parasite or virus in culture; details: Burkholderia multivorans, AU12481
T14 construct: AU12481
Source text: as §1

B. multivorans AU18096 = test system: T15, B. multivorans AU18096; experiment: microbe, parasite or virus in culture; details: Burkholderia multivorans, AU18096
T15 construct: AU18096
Source text: as §1

B. multivorans AU23365 = test system: T16, B. multivorans AU23365; experiment: microbe, parasite or virus in culture; details: Burkholderia multivorans, AU23365
T16 construct: AU23365
Source text: as §1

B. multivorans AU23690 = test system: T17, B. multivorans AU23690; experiment: microbe, parasite or virus in culture; details: Burkholderia multivorans, AU23690
T17 construct: AU23690
Source text: as §1

B. multivorans AU30438 = test system: T18, B. multivorans AU30438; experiment: microbe, parasite or virus in culture; details: Burkholderia multivorans, AU30438
T18 construct: AU30438
Source text: as §1

B. multivorans AU4507 = test system: T19, B. multivorans AU4507; experiment: microbe, parasite or virus in culture; details: Burkholderia multivorans, AU4507
T19 construct: AU4507
Source text: as §1

B. stabilis AU10235 = test system: T20, B. stabilis AU10235; experiment: microbe, parasite or virus in culture; details: Burkholderia stabilis, AU10235
T20 construct: AU10235
Source text: as §1

[1] = test system: T21, Burkholderia cepacia complex Bcc Indeterminate AU12848; experiment: microbe, parasite or virus in culture; details: Burkholderia cepacia
T21 construct: AU12848
Source text: as §1

[2] = test system: T22, Burkholderia cepacia complex Bcc Indeterminate AU14962; experiment: microbe, parasite or virus in culture; details: Burkholderia cepacia
T22 construct: AU14962
Source text: as §1

| Structure (SMILES) | MIC (B. cenocepacia AU10321) | MIC (B. cenocepacia AU12659) | MIC (B. cenocepacia AU22509) | MIC (B. cenocepacia AU9215) | MIC (B. cenocepacia AU9292) | MIC (B. cepacia AU0108) | MIC (B. cepacia AU11420) | MIC (B. cepacia AU29493) | MIC (B. dolosa AU12872) | MIC (B. gladioli AU28659) | MIC (B. gladioli AU30473) | MIC (B. multivorans AU10398) | MIC (B. multivorans AU11204) | MIC (B. multivorans AU12481) | MIC (B. multivorans AU18096) | MIC (B. multivorans AU23365) | MIC (B. multivorans AU23690) | MIC (B. multivorans AU30438) | MIC (B. multivorans AU4507) | MIC (B. stabilis AU10235) | other results |
| --- | --- | --- | --- | --- | --- | --- | --- | --- | --- | --- | --- | --- | --- | --- | --- | --- | --- | --- | --- | --- | --- |
| C[C@H]1COc2c(N3CCN(C)CC3)c(F)cc3c(=O)c(C(=O)O)cn1c23 [levofloxacin] | > 32 µg/mL | 1 µg/mL (≈ 2.77 µM) | 32 µg/mL (≈ 88.6 µM) | 32 µg/mL (≈ 88.6 µM) | 32 µg/mL (≈ 88.6 µM) | 2 µg/mL (≈ 5.53 µM) | 4 µg/mL (≈ 11.1 µM) | 8 µg/mL (≈ 22.1 µM) | > 32 µg/mL | 2 µg/mL (≈ 5.53 µM) | 2 µg/mL (≈ 5.53 µM) | 16 µg/mL (≈ 44.3 µM) | 2 µg/mL (≈ 5.53 µM) | 4 µg/mL (≈ 11.1 µM) | 4 µg/mL (≈ 11.1 µM) | 8 µg/mL (≈ 22.1 µM) | > 32 µg/mL | 4 µg/mL (≈ 11.1 µM) | 8 µg/mL (≈ 22.1 µM) | 16 µg/mL (≈ 44.3 µM) | MIC [1]: 8 µg/mL (≈ 22.1 µM); MIC [2]: 2 µg/mL (≈ 5.53 µM) |
| CO/N=C(\C(=O)N[C@@H]1C(=O)N2C(C(=O)[O-])=C(C[N+]3(C)CCCC3)CS[C@H]12)c1csc(N)n1 [cefepime] | > 32 µg/mL | 16 µg/mL (≈ 33.3 µM) | > 32 µg/mL | > 32 µg/mL | 32 µg/mL (≈ 66.6 µM) | 8 µg/mL (≈ 16.6 µM) | > 32 µg/mL | > 32 µg/mL | > 32 µg/mL | 32 µg/mL (≈ 66.6 µM) | 32 µg/mL (≈ 66.6 µM) | > 32 µg/mL | 4 µg/mL (≈ 8.32 µM) | 2 µg/mL (≈ 4.16 µM) | 2 µg/mL (≈ 4.16 µM) | > 32 µg/mL | 32 µg/mL (≈ 66.6 µM) | 16 µg/mL (≈ 33.3 µM) | 8 µg/mL (≈ 16.6 µM) | > 32 µg/mL | MIC [1]: > 32 µg/mL; MIC [2]: > 32 µg/mL |
| C[C@@H](O)[C@H]1C(=O)N2C(C(=O)O)=C(S[C@@H]3CN[C@H](C(=O)N(C)C)C3)[C@H](C)[C@H]12 [meropenem] | 16 µg/mL (≈ 41.7 µM) | 4 µg/mL (≈ 10.4 µM) | 8 µg/mL (≈ 20.9 µM) | 16 µg/mL (≈ 41.7 µM) | 4 µg/mL (≈ 10.4 µM) | 4 µg/mL (≈ 10.4 µM) | 8 µg/mL (≈ 20.9 µM) | 8 µg/mL (≈ 20.9 µM) | 32 µg/mL (≈ 83.4 µM) | 2 µg/mL (≈ 5.22 µM) | 4 µg/mL (≈ 10.4 µM) | 8 µg/mL (≈ 20.9 µM) | 2 µg/mL (≈ 5.22 µM) | 2 µg/mL (≈ 5.22 µM) | 1 µg/mL (≈ 2.61 µM) | 8 µg/mL (≈ 20.9 µM) | 4 µg/mL (≈ 10.4 µM) | 4 µg/mL (≈ 10.4 µM) | 8 µg/mL (≈ 20.9 µM) | 16 µg/mL (≈ 41.7 µM) | MIC [1]: 8 µg/mL (≈ 20.9 µM); MIC [2]: 8 µg/mL (≈ 20.9 µM) |

From article PMC10648927, “Examining the activity of cefepime-taniborbactam against Burkholderia cepacia complex and Burkholderia gladioli isolated from cystic fibrosis patients in the United States” (Antimicrobial Agents and Chemotherapy, 2023)
